From patent US7521418B2, “Use of a polyene macrolide antifungal agent in combination with a glycopeptide antibacterial agent” (Theravance, Inc., priority 2003, dated 2009)

Legend:
Assay in all cases: Checkerboard MIC assay, FICI
Conditions in all cases: combination with Compound 1
P. boydii ATCC 38283 = type: cell-based, Pseudallescheria boydii
Text: (§1) The following assay was used to determine the minimum inhibitory concentration (MIC) and fractional inhibitory concentration index (FICI) for combinations of an antifungal agent and a glycopeptide antibacterial agent. This assay and methods for calculating FICI are well known in the art. See, for example, Eliopoulos, E. G. and R. Moellering, Jr. “Antimicrobial Combinations” in Antibiotics in Laboratory Medicine, edited by V. Lorian, 4th Ed., Williams & Wilkins, Baltimore, MD, pp. 330-396 (1996); […] et al., Antimicrobial Agents and Chemotherapy 47(4):1416-1418 (2003); or […] et al., Antimicrobial Agents and Chemotherapy 46(10):3323-3326 (2002). […] The MIC of the glycopeptide antibacterial agent determined from this experiment was used in FIC calculations. […]

[1] = test system: R. microsporus ATCC 14050; type: cell-based, Rhizopus microsporus
Text: as §1

A. flavus ATCC 64025 = type: cell-based, Aspergillus flavus
Text: as §1

SMILES | FICI (P. boydii ATCC 38283) | FICI [1] | FICI (A. flavus ATCC 64025)
C[C@@H]1[C@H](O)[C@@H](C)/C=C/C=C/C=C/C=C/C=C/C=C/C=C/[C@H](O[C@@H]2O[C@H](C)[C@@H](O)[C@H](N)[C@@H]2O)C[C@@H]2O[C@](O)(C[C@@H](O)C[C@@H](O)[C@H](O)CC[C@@H](O)C[C@@H](O)CC(=O)O[C@H]1C)C[C@H](O)[C@H]2C(=O)O [Amphotericin B] | 0.38 | 0.27 | 0.51
C[C@@H]1[C@H](O)[C@@H](C)/C=C/C=C/CC/C=C/C=C/C=C/C=C/C(O[C@H]2O[C@H](C)[C@@H](O)[C@H](N)[C@@H]2O)CC2O[C@](O)(CC(O)C(O)CCC(O)CC(O)CC(O)CC(=O)O[C@H]1C)CC(O)C2C(=O)O (stereo partly drawn) [Nystatin] | 0.38 | 0.51 | 0.51
